From patent US20250326753A1, “DUAL CXCR4-BTK INHIBITORS” (X4 Pharmaceuticals, Inc., priority 2022, published 2025)

What was measured:
Assay type in all cases: biochemical
FGFR2 = target: T1, FGFR2 (Homo sapiens, UniProt P21802); test: PanQinase kinase panel: FGFR2; conditions: read-out: INHIBITORY EFFECT @ 1 uM: FGFR2
T1 construct: purchased Reaction Biology Europe GmbH
Procedure: Screening procedures were performed in accordance with the company's on-line protocol [accessed on-line Mar. 25, 2022 at reaction biology.com/assay-protocol-panqinase]. Inhibitory activity of 50% or greater at concentrations of 1 μM are highlighted for all five compounds tested.
(§1) For each kinase, the median value of the cpm of three wells was defined as “low control” (n=3). This value reflects unspecific binding of radioactivity to the plate in the absence of a protein kinase but in the presence of the substrate. Additionally, for each kinase the median value of the cpm of three other wells was taken as the “high control,” i.e. full activity in the absence of any inhibitor (n=3). The difference between high and low control of each enzyme was taken as 100% activity.
(§2) As part of the data evaluation the low control of each kinase was subtracted from the high control value as well as from their corresponding “compound values”. The residual activity (in %) for each compound well was calculated by using the following formula: Res. Activity (%)=100×[(signal of compound−low control)/(high control−low control)].

RIPK5 = target: T2, RIPK5 (Homo sapiens, UniProt Q6XUX3); test: PanQinase kinase panel: RIPK5; conditions: read-out: INHIBITORY EFFECT @ 1 uM: RIPK5
T2 construct: purchased Reaction Biology Europe GmbH
T2 sequence (Q6XUX3 1-929): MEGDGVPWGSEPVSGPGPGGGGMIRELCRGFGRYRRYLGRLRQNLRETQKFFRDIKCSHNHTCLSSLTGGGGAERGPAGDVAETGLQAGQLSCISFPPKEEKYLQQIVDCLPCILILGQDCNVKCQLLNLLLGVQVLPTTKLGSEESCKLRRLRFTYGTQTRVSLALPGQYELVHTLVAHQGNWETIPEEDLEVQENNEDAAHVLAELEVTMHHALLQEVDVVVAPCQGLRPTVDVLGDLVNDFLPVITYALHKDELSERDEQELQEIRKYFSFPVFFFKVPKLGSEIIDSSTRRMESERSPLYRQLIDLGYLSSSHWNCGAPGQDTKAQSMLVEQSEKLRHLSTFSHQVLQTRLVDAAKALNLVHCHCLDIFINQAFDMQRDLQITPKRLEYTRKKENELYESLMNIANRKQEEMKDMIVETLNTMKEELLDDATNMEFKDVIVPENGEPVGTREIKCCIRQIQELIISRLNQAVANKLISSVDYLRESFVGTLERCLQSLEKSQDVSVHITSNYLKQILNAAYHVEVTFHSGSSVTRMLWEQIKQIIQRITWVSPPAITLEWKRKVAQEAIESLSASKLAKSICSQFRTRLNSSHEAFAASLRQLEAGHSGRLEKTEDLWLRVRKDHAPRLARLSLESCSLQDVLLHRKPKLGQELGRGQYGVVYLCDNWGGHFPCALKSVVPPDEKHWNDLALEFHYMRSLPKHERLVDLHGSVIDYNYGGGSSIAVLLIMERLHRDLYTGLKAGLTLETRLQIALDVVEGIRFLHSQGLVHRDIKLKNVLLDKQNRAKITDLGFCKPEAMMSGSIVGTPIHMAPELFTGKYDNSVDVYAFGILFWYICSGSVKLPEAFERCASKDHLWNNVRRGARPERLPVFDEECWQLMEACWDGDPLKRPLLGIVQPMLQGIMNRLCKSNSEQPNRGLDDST
Procedure: Screening procedures were performed in accordance with the company's on-line protocol [accessed on-line Mar.
as §1, §2

BTK = BTK (Homo sapiens, UniProt Q06187); test: BTK Kinase Enzyme System with ADP-Glo Kinase Assay; set-up: Recombinant full-length human BTK was expressed by baculovirus in Sf9 insect cells; His (N); purchased Promega V9071; host or cells: Sf9 insect cells (baculovirus); conditions: 50 μM ATP
Procedure: Inhibition of BTK activity was evaluated using the BTK Kinase Enzyme System in combination with the ADP-Glo™ Kinase Assay Kit (V9071, Promega), according to manufacturer's instructions. Luminescence was detected on a PerkinElmer EnVision Multimode Plate Reader.
Recombinant full-length human BTK was expressed by baculovirus in Sf9 insect cells using an N-terminal His tag, MW ˜78 kDa. Substrate solution contained Poly (4:1 Glu, Tyr) Peptide Substrate. BTK Kinase Buffer consisted of: 40 mM Tris, pH 7.5; 20 mM MgCl2; 0.1 mg/ml BSA; 2 mM MnCl2; 50 μM DTT. ADP-Glo™ Reagents were thawed at ambient temperature; components of BTK Enzyme System, ADP and ATP were thawed on ice. Final assay conditions used 3 ng BTK, 50 μM ATP, and 0.2 mg/mL substrate. Compounds were tested at 11 dose points in duplicates, in 3-fold dilution with top concentration at 10 μM.
Assay performance was evaluated according to the reference compound Staurosporine, which was within 3-5 fold of published results and between different tests, with a Z′ value larger than 0.5, where applicable.

T1 sequence (P21802 22-821): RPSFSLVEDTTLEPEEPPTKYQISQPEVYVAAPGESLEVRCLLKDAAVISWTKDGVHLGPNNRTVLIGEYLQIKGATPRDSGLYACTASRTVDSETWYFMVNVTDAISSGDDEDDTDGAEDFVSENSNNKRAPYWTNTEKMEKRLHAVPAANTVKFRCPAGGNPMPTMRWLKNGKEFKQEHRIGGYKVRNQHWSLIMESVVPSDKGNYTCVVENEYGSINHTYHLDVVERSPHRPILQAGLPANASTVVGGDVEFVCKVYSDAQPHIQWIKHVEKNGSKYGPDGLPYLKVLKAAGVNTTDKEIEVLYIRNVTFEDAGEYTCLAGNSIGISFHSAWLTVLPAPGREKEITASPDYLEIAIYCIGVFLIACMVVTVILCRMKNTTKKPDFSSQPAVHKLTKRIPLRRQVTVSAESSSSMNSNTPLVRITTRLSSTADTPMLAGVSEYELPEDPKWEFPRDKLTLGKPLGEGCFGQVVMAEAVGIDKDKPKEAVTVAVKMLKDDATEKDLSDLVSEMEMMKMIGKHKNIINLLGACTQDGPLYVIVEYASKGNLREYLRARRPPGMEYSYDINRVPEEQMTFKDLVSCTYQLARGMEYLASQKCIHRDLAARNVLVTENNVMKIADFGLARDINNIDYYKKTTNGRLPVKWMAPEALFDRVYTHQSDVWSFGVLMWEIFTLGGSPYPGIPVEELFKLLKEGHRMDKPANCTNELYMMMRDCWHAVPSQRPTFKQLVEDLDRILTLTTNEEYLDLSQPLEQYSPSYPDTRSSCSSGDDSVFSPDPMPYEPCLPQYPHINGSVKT
Chain of BTK (Q06187 whole entry): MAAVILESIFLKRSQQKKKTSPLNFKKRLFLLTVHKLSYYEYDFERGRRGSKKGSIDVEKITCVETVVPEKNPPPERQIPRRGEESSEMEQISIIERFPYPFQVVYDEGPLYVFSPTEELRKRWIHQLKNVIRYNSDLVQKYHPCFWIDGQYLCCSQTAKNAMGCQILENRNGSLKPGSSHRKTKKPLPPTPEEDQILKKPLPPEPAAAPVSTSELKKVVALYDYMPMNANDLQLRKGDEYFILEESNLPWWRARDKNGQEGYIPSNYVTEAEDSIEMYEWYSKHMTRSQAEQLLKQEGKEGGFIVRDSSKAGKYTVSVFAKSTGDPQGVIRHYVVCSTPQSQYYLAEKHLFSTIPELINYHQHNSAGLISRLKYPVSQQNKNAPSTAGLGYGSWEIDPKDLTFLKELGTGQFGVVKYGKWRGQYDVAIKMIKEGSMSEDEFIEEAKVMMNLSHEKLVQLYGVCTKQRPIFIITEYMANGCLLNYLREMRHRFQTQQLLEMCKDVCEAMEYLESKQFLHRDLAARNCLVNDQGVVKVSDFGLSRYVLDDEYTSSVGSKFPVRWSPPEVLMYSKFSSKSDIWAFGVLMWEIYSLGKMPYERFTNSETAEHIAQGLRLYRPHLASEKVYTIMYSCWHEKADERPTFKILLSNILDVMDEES

## COc1ccc(F)cc1C(=O)NCc1ccc(-c2nn([C@@H](C)C(F)(F)F)c(N)c2C(N)=O)cc1 [LOXO-305, pirtobrutinib]
FGFR2
  inhibition at 1 µM: < 50%
RIPK5
  inhibition at 1 µM: < 50%

## C=CC(=O)N1CCC([C@@H]2CCNc3c(C(N)=O)c(-c4ccc(Oc5ccccc5)cc4)nn32)CC1 [Zanubrutinib, (7S)-2-(4-phenoxyphenyl)-7-(1-prop-2-enoylpiperidin-4-yl)-4,5,6,7-tetrahydropyrazolo[1,5-a]pyrimidine-3-carboxamide]
FGFR2
  inhibition at 1 µM: < 50%
RIPK5
  inhibition at 1 µM: < 50%

## O=C(c1ccc(Oc2ccccc2)cc1Cl)c1c[nH]c2ncnc(N[C@@H]3CC[C@@H](CO)OC3)c12 [ARQ-531, (2-chloro-4-phenoxyphenyl) (4-(((3R,6S)-6-(hydroxymethyl)tetrahydro-2H-pyran-3-yl)amino)-7H-pyrrolo[2,3-d]pyrimidin-5-yl) methanone]
FGFR2
  inhibition at 1 µM: 90 to 100%
RIPK5
  inhibition at 1 µM: 70 to 89%

## Cc1cccnc1[C@H]1CCC[C@@H](c2ncccc2C)N1CCN1CCN(C(=O)c2ccc(-c3cc4c(-c5cccc(NC(=O)c6ccccc6)c5C)ncnc4[nH]3)cc2)CC1 [Compound I-10, N-(3-(6-(4-(4-(2-((2R,6S)-2,6-bis(3-methylpyridin-2-yl)piperidin-1-yl)ethyl)piperazine-1-carbonyl)phenyl)-7H-pyrrolo[2,3-d]pyrimidin-4-yl)-2-methylphenyl)benzamide]
FGFR2
  inhibition at 1 µM: < 50%
RIPK5
  inhibition at 1 µM: < 50%
BTK
  IC50: 1 to 100 nM

## Cc1cccnc1[C@H]1CCC[C@@H](c2ncccc2C)N1CCCCNC(=O)OC[C@@H]1CC[C@@H](Nc2ncnc3[nH]cc(C(=O)c4ccc(Oc5ccccc5)cc4Cl)c23)CO1 [Compound I-18]
BTK
  IC50: 1 to 100 nM

## Cc1cc(-c2ccnc(Nc3cnn(CCN4[C@@H](c5ncccc5C)CCC[C@H]4c4ncccc4C)c3)n2)ccc1CNC(=O)N1CC(OC(C)C)C1 [Compound I-11]
BTK
  IC50: 1 to 100 nM

## Cc1cccnc1[C@H]1CCC[C@@H](c2ncccc2C)N1CCCCNC(=O)[C@@H]1CC[C@@H](Nc2ncnc3[nH]cc(C(=O)c4ccc(Oc5ccccc5)cc4Cl)c23)CO1 [Compound I-16]
BTK
  IC50: 1 to 100 nM
